Results on 40 compounds are retold here after US20240391895A1, “PYRIDAZINE-CONTAINING COMPOUND AND MEDICINAL USE THEREOF” (Tuojie Biotech (Shanghai) Co., Ltd., priority 2020, published 2024).

The target in this assay is T1, NLRP3 inflammasome (Homo sapiens, UniProt Q96P20).
T1 construct: Monocytes were then isolated from the PBMCs using a human pan-monocyte isolation kit; endogenous in cells; host or cells: primary human monocytes isolated from PBMCs of human blood
T1 sequence (Q96P20 whole entry): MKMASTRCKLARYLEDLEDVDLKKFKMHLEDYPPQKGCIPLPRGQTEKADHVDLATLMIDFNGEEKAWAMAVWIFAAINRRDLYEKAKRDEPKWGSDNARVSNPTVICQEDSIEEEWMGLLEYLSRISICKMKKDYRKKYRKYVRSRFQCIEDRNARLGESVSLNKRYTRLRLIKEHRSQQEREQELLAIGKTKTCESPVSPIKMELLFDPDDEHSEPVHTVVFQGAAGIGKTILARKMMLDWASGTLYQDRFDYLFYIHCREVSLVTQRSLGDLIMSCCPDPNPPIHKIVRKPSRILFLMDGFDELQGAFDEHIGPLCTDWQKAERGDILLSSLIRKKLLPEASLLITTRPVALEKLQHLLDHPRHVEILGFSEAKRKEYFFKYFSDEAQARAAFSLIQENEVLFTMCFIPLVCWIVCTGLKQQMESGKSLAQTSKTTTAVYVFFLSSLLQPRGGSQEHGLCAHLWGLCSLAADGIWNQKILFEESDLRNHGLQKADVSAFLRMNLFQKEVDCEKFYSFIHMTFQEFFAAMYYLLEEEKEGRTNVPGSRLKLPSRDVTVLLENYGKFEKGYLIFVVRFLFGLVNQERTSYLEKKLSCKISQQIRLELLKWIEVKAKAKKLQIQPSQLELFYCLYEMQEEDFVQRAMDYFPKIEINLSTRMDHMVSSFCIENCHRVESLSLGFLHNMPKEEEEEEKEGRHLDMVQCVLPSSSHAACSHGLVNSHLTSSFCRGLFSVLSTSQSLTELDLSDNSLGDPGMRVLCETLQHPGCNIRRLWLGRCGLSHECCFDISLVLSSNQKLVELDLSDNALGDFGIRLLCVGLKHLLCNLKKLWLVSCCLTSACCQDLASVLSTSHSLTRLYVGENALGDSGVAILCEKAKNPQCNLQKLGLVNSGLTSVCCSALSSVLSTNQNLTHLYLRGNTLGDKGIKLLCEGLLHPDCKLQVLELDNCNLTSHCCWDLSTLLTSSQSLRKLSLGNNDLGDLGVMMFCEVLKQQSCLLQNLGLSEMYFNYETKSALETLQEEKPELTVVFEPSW
Nature of the assay: Inhibitory activity against NLRP3 inflammasome in human monocytes (IL-1b ELISA). The following applies: human monocytes from PBMCs; compound 0.5 h, LPS 100 ng/mL 3.5 h, ATP 5 mM 45 min; IL-1b in supernatant by ELISA; (n = 2) cells are means of n tests; read-out: IL-1β inhibition (EC50)/nM. The class given is cell-based. As to the method: Assays for Inhibitory Activity Against NLRP3 Inflammasome in Human Monocytes
Day 1: PBMCs were separated from human blood by density gradient centrifugation and washed twice with PBS containing 2% FBS (centrifuged at 300 g for 8 min). Monocytes were then isolated from the PBMCs using a human pan-monocyte isolation kit and an LS column. The cells were stained with CD14-FITC at 4° C. for 30 min, and FACS was run on BD FACS Verse to analyze the purity of the pan-monocytes. The cells were counted, and the cell density was adjusted to 2.5×10^5 cells/mL. The cells were seeded into a 96-well plate at 2.5×10^4 monocytes/[…] suspension/well. The plate was incubated overnight at 37° C. in 5% CO2.
Day 2: Test compounds were pre-titrated so that all titration points, including the DMSO control well, contained 0.1% DMSO. […] At the end of the 3.5 hours' incubation, the cells were stimulated (by adding […] of 40 mM ATP (the final concentration would be 5 mM) to treat the cells for 45 min). […] of supernatant was transferred to a new plate and stored at […]
Day 3: The supernatant solution was 20-fold diluted for human monocyte IL-1b ELISA according to the manufacturer's instructions.
Days 3-4: ELISA experiment • 1) Day 3: A capture antibody (diluted with coating buffer) was added to the plate at […]. The plate was sealed and incubated overnight at 4° C. • 2) Day 4: The liquids in the wells were pipetted off, and the plate was washed 3 times with wash buffer, 300 μL/≥each time. After the last wash, the plate was inverted and blotted dry with absorbent paper to remove any residual buffer.
3) A test dilution was added to the plate at ≥200 μL/well. The plate was incubated at room temperature for 1 h. • 4) The plate was blotted dry/washed as in step 2. • 5) Standard and sample dilutions were prepared with the test dilution. • 6) Each standard, sample and control was added to a corresponding well at […]. The plate was sealed and incubated at room temperature for 2 h. • 7) The plate was blotted dry/washed as in step 2, except that it was washed 5 times. • 8) The assay antibody was diluted with the test dilution and added to wells at […]/well. • 9) The plate was sealed and incubated at room temperature for 1 h. • 10) The plate was blotted dry/washed as in step 2, except that it was washed 5 times. • 11) The enzyme reagent was diluted with the test dilution and added to wells at […]/well. The plate was sealed and incubated at room temperature for 30 min. • 12) The plate was blotted dry/washed, and the step of soaking for 30 s-1 min was used. The plate was washed 7 times in total. • 13) A substrate solution was added at […]/well. The plate (without plate sealant) was incubated at room temperature in the dark for 30 min. • 14) A stop solution was added at […]. • 15) The absorbance at 450 nm was read using the instrument Envision within 30 min of stopping the reaction. If a wavelength correction was available, the absorbance at 570 nm would be subtracted from the absorbance at 450 nm.
With `Cc1cc(N[C@@H]2CCCN(C)C2)nnc1-c1ccc2c(c1O)CCCC2` [Compound 27], the EC50 stood at 4.75 nM.

With `CN1CCC[C@@H](Nc2nnc(-c3c(O)cc(C(F)(F)F)cc3F)c3c2COC3)C1` [Compound 35], the EC50 is 1.4 nM.

Take `C[C@]1(O)C[C@@H](Nc2nnc(-c3ccc4c(c3O)CCC4)c3ccncc23)C1` [Compound 39]: the EC50 is 1 nM.

Regarding `C[C@]1(O)C[C@@H](Nc2nnc(-c3ccc4c(c3O)CCC4)c3ccccc23)C1` [Compound 31], the EC50 turned out to be 1.08 nM.

As to `Cc1c(N[C@H]2C[C@@](C)(O)C2)nnc(-c2ccc(C3CC3)cc2O)c1C` [Compound 29], the EC50 is 37.2 nM.

In the case of `OCCN1CCC[C@@H](Nc2nnc(-c3ccc(C(F)(F)F)cc3O)c3c2CCCC3)C1` (racemic) [Compound 19, rac-(R)-2-(4-(1-(2-Hydroxyethyl)piperidin-3-yl)amino)-5,6,7,8-tetrahydrophthalazin-1-yl)-5-(trifluoromethyl)phenol], the EC50 was determined as 4.99 nM.

As for `C[C@]1(O)C[C@@H](Nc2nnc(-c3c(O)cc(C(F)(F)F)cc3F)c3cnccc23)C1` [Compound 34], the EC50 amounted to 27 nM.

Take `C[C@]1(O)C[C@@H](Nc2nnc(-c3ccc(C4CC4)cc3O)c3ccncc23)C1` [Compound 41]: the EC50 amounted to 27 nM.

In the case of `C[C@]1(O)C[C@@H](Nc2nnc(-c3ccc4c(c3O)CCC4)c3cnccc23)C1` [Compound 40], the EC50 stood at 1.1 nM.

As for `C[C@]1(O)C[C@@H](Nc2nnc(-c3ccc(C(F)(F)F)cc3O)c3c2COCC3)C1` [Compound 42], the EC50 was determined as 20 nM.

With `Cc1cc(C(F)(F)F)cc(O)c1-c1nnc(N[C@H]2C[C@@](C)(O)C2)c2ccccc12` [Compound 46], the EC50 is 10.1 nM.

`Cc1cc(C(F)(F)F)cc(O)c1-c1nnc(N[C@H]2C[C@@](C)(O)C2)c2cnccc12` [Compound 45]: the EC50 worked out at 4.9 nM.

Regarding `Cc1cc(N[C@H]2C[C@@](C)(O)C2)nnc1-c1cc(F)c2c(c1O)CCC2` [Compound 37], the EC50 turned out to be 60 nM.

As for `Cc1cc(N[C@@H]2CCCN(C)C2)nnc1-c1c(O)ccc2c1CCC2` [Compound 7], the EC50 is 22.6 nM.

As for `C[C@]1(O)C[C@@H](Nc2nnc(-c3ccc(C(F)(F)F)cc3O)c3ccccc23)C1` [Compound 15], the EC50 was 4.25 nM.

Regarding `Cc1cc(N[C@@H]2CCCN(C)C2)nnc1-c1ccc2c(c1O)CCC2` [Compound 4, (R)-5-(4-Methyl-6-((1-methylpiperidin-3-yl)amino)pyridazin-3-yl)-2,3-dihydro-1H-inden-4-ol], the EC50 is 1.91 nM.

With `C[C@]1(O)C[C@@H](Nc2nnc(-c3ccc(C(F)(F)F)cc3O)c3ccncc23)C1` [Compound 24], the EC50 was determined as 0.68 nM.

Consider `Cc1cc(N[C@@H]2CCCN(C)C2)nnc1-c1cc2c(cc1O)CCC2` [Compound 6, (R)-6-(4-Methyl-6-((1-methylpiperidin-3-yl)amino)pyridazin-3-yl)-2,3-dihydro-1H-inden-5-ol], for which the EC50 was 18.7 nM.

As for `Cc1cc(N[C@@H]2CCCN(CCO)C2)nnc1-c1ccc(C2CC2)cc1O` (racemic) [Compound 36, rac-(R)-5-Cyclopropyl-2-(6-((1-(2-hydroxyethyl)piperidin-3-yl)amino)-4-methylpyridazin-3-yl)phenol], the EC50 was determined as 127 nM.

As to `C[C@]1(O)C[C@@H](Nc2nnc(-c3ccc(C(F)(F)F)cc3O)c3cccnc23)C1` [Compound 23], the EC50 was 2.51 nM.

`Cc1cc(N[C@@H]2CCCN(C)C2)nnc1-c1ccc(C(F)(F)F)cc1C(F)F` [Compound 8, (R)-6-(2-(Difluoromethyl)-4-(trifluoromethyl)phenyl)-5-methyl-N-(1-methylpiperidin-3-yl)pyridazin-3-amine]: the EC50 stood at 4.31 nM.

Consider `Cc1cc(C(F)(F)F)cc(O)c1-c1nnc(N[C@@H]2CCCN(C)C2)c2c1COC2` [Compound 47], for which the EC50 is 32.2 nM.

Turning to `Cc1cc(N[C@H]2C[C@@](C)(O)C2)nnc1-c1ccc(C2CC2)cc1O` [Compound 28], the EC50 came out at 17.4 nM.

As for `Cc1cc(N[C@@H]2CCCN(C)C2)nnc1-c1cc2ccccc2cc1O` [Compound 9, (R)-3-(4-Methyl-6-((1-methylpiperidin-3-yl)amino)pyridazin-3-yl)naphthalen-2-ol], the EC50 was 41.8 nM.

Take `Cc1c(N[C@H]2C[C@@](C)(O)C2)nnc(-c2ccc3c(c2O)CCC3)c1C` [Compound 21]: the EC50 worked out at 4.62 nM.

For `CN1CCC[C@@H](Nc2ccc(-c3c(O)ccc4ccccc34)nn2)C1` [Compound 10, (R)-1-(6-((1-Methylpiperidin-3-yl)amino)pyridazin-3-yl)naphthalen-2-ol], the EC50 worked out at 48.2 nM.

As for `C[C@]1(O)C[C@@H](Nc2nnc(-c3c(O)cc(C(F)(F)F)cc3F)c3ccccc23)C1` [Compound 44], the EC50 worked out at 24 nM.

For the compound `C[C@]1(O)C[C@@H](Nc2nnc(-c3ccc(C(F)(F)F)cc3O)c3c2CCOC3)C1` [Compound 43], the EC50 is 20 nM.

On to `Cc1cc(N[C@H]2C[C@@](C)(O)C2)nnc1-c1ccc2c(c1O)CCC2` [Compound 14], for which the EC50 came out at 2.38 nM.

Turning to `Cc1cc(N[C@@H]2CCCN(C)C2)nnc1-c1cc2ccccc2cc1O` [Compound 5, (R)-3-(4-Methyl-6-((1-methylpiperidin-3-yl)amino)pyridazin-3-yl)naphthalen-2-ol], the EC50 came out at 41.8 nM.

For `C[C@]1(O)C[C@@H](Nc2nnc(-c3ccc4c(c3O)CCC4)c3cccnc23)C1` [Compound 38], the EC50 was found to be 3 nM.

`C[C@]1(O)C[C@@H](Nc2nnc(-c3c(O)cc(C(F)(F)F)cc3F)c3ccncc23)C1` [Compound 33]: the EC50 turned out to be 22 nM.

For the compound `CN1CCC[C@@H](Nc2nnc(-c3c(O)cccc3F)c3c2CCC3)C1` (racemic) [Compound 20, rac-3-Fluoro-2-(4-((R)-1-methylpiperidin-3-yl)amino)-6,7-dihydro-5H-cyclopenta[d]pyridazin-1-yl)phenol], the EC50 came out at 1.23 nM.

As to `Cc1cc(N[C@@H]2CCCN(C)C2)nnc1-c1c(O)ccc2c1CCC2` [Compound 17], the EC50 is 14.4 nM.

Consider `OCCN1CCC[C@@H](Nc2nnc(-c3ccc(C(F)(F)F)cc3O)c3c2COC3)C1` (racemic) [Compound 32, rac-(R)-2-(4-(1-(2-Hydroxyethyl)piperidin-3-yl)amino)-5,7-dihydrofuro[3,4-d]pyridazin-1-yl)-5-(trifluoromethyl)phenol], for which the EC50 was 0.71 nM.

Consider `C[C@]1(O)C[C@@H](Nc2nnc(-c3ccc(C4CC4)cc3O)c3ccccc23)C1` [Compound 30], for which the EC50 came to 13.4 nM.

With `Cc1cc(N[C@@H]2CCCN(C)C2)nnc1-c1ccncc1O` [Compound 13, (R)-4-(4-Methyl-6-((1-methylpiperidin-3-yl)amino)pyridazin-3-yl)pyridin-3-ol], the EC50 is 129 nM.

Turning to `C[C@]1(O)C[C@@H](Nc2nnc(-c3ccc(C(F)(F)F)cc3O)c3ncccc23)C1` [Compound 22], the EC50 stood at 35.5 nM.

Take `Cc1cc(N[C@@H]2CCCN(C)C2)nnc1-c1ccc(SC(F)(F)F)cc1O` (racemic) [Compound 11, rac-(R2-(4-Methyl-6-((1-methylpiperidin-3-yl)amino)pyridazin-3-yl)-5-( (trifluoromethyl)thio)phenol]: the EC50 turned out to be 2.47 nM.

With `C[C@]1(O)C[C@@H](Nc2nnc(-c3ccc(C(F)(F)F)cc3O)c3cnccc23)C1` [Compound 25], the EC50 was 12.8 nM.
